Data as given in publication PMC10690437 (Nature immunology, 2023).

Test system: HLA-E
Assay: HLA-E expression on PBMCs after IFNγ treatment
Assay type: cell-based, human
Details: PBMCs cultured with 5 ng ml^−1 IFNγ for 2 days; 3D12 flow cytometry

IFNγ: interferon-γ (BioLegend, PeproTech)
HLA-E surface expression on peripheral blood cells: increase in HLA-E surface expression
